One assay concerns the target human Gal-1 (hGal-1) (Homo sapiens (Human), UniProt P09382). In words: competitive binding assay: biotinylated hGal-1 binding to microplate-adsorbed asialofetuin (ASF). The conditions noted are these: Table 15; read-out: IC50 (Galectin-1 inhibition). An outline of the steps: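 Spectrophotometric competition readout: after compound and biotinylated hGal-1 (300-1000 ng/mL) sit 3 h at 4° C on adsorbed asialofetuin, streptavidin-peroxidase (1 h, 4° C) and ABTS reveal residual binding. Reported IC50 values are means of repeat runs.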

A further assay addresses human Gal-3 (hGal-3) (Homo sapiens (Human), UniProt P17931). In words: competitive binding assay: biotinylated hGal-3 binding to microplate-adsorbed asialofetuin (ASF). An outline of the steps:
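Serially diluted compounds compete with biotinylated hGal-3 binding to adsorbed asialofetuin (3 hours, 4° C). After washing, streptavidin-peroxidase at 80 ng/mL for 1 hour at 4° C, with ABTS colour read-out. IC50 values are averaged over repeated runs.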

Setting [1] is: Gal-3 inhibition, binding of biotinylated hGal-3 to ASF, mean values, read-out: IC50.
Setting [2] is: Table 11, read-out: IC50 (Gal-3 inhibition).
Setting [3] is: Table 5, read-out: IC50 (Gal-3 inhibition).

Read-outs that look alike come from different tables or passages of the source.

Chain of human Gal-3 (hGal-3) (P17931 whole entry): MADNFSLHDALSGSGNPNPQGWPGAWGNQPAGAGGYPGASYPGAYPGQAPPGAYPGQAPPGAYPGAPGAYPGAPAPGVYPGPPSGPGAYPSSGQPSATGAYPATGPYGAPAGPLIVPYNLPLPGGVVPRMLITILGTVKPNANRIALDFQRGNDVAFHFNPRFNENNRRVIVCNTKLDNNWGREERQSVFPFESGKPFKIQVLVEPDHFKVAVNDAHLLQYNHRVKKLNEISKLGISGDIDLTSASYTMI
Chain of human Gal-1 (hGal-1) (P09382 whole entry): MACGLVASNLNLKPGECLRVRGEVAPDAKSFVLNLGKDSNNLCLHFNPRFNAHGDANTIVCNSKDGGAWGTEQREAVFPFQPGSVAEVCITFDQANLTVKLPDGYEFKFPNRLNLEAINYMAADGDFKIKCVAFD

For `CC(C)(O)C(S[C@@H]1O[C@H](CO)[C@H](O)[C@H](n2cc(-c3cc(F)c(F)c(F)c3)nn2)[C@H]1O)c1cccc(Cl)c1Cl` (stereo partly drawn) [Example 2.31.113., (2S,3R,4S,5R,6R)-2-((1-(2,3-Dichlorophenyl)-2-hydroxy-2-methylpropyl)thio)-6-(hydroxymethyl)-4-(4-(3,4,5-trifluorophenyl)-1H-1,2,3-triazol-1-yl)tetrahydro-2H-pyran-3,5-diol], the IC50 at human Gal-1 (hGal-1) came out at 3750 nM; at human Gal-3 (hGal-3) (setting [1]), 460 nM.

As for `CC(C)(O)C(S[C@@H]1O[C@H](CO)[C@H](O)[C@H](n2cc(-c3cc(F)c(F)c(F)c3)nn2)[C@H]1O)c1ccccc1` (stereo partly drawn) [Example 2.31.100., (2S,3R,4S,5R,6R)-2-((2-Hydroxy-2-methyl-1-phenylpropyl)thio)-6-(hydroxymethyl)-4-(4-(3,4,5-trifluorophenyl)-1H-1,2,3-triazol-1-yl)tetrahydro-2H-pyran-3,5-diol], the IC50 worked out at 3710 nM on human Gal-1 (hGal-1) and 1900 nM on human Gal-3 (hGal-3) (setting [1]).

Regarding `CC(C)c1ccccc1C(CO)S[C@@H]1O[C@H](CO)[C@H](O)[C@H](n2cc(-c3cc(F)c(F)c(F)c3)nn2)[C@H]1O` (stereo partly drawn) [Example 2.30.105., (2S,3R,4S,5R,6R)-2-((2-Hydroxy-1-(2-isopropylphenyl)ethyl)thio)-6-(hydroxymethyl)-4-(4-(3,4,5-trifluorophenyl)-1H-1,2,3-triazol-1-yl)tetrahydro-2H-pyran-3,5-diol], the IC50 at human Gal-1 (hGal-1) is 1730 nM; on human Gal-3 (hGal-3) (setting [1]) it was 400 nM.

Regarding `CO[C@@H]1[C@@H](n2cc(-c3cc(F)c(F)c(F)c3)nn2)[C@@H](O)[C@@H](CO)O[C@H]1SC(c1nc(Cl)ccc1Cl)C1(O)CCC(F)(F)CC1` (stereo partly drawn) [Example 2.44.144.I., (2R,3R,4S,5R,6S)-6-(((3,6-Dichloropyridin-2-yl)(4,4-difluoro-1-hydroxycyclohexyl)methyl)thio)-2-(hydroxymethyl)-5-methoxy-4-(4-(3,4,5-trifluorophenyl)-1H-1,2,3-triazol-1-yl)tetrahydro-2H-pyran-3-ol], the figures for the IC50 at human Gal-1 (hGal-1) and at human Gal-3 (hGal-3) (setting [2]) were 4160 nM and 250 nM, respectively.

With `Cc1ccccc1[C@@H](S[C@@H]1O[C@H](CO)[C@H](O)[C@H](n2cc(-c3cc(F)c(F)c(F)c3)nn2)[C@H]1O)C1(O)CCCCC1` [Example 2.39.102R., (2S,3R,4S,5R,6R)-2-(((R)-(1-Hydroxycyclohexyl)(o-tolyl)methyl)thio)-6-(hydroxymethyl)-4-(4-(3,4,5-trifluorophenyl)-1H-1,2,3-triazol-1-yl)tetrahydro-2H-pyran-3,5-diol], the values for the IC50 at human Gal-1 (hGal-1) and at human Gal-3 (hGal-3) (setting [3]) were 1140 nM and 90 nM, respectively.

As for `Cc1cccnc1[C@@H](S[C@@H]1O[C@H](CO)[C@H](O)[C@H](n2cc(-c3cc(F)c(F)c(F)c3)nn2)[C@H]1O)C1(O)CCOCC1` [Example 2.41.126R., (2R,3R,4S,5R,6S)-2-(Hydroxymethyl)-6-(((R)-(4-hydroxytetrahydro-2H-pyran-4-yl)(3-methylpyridin-2-yl)methyl)thio)-4-(4-(3,4,5-trifluorophenyl)-1H-1,2,3-triazol-1-yl)tetrahydro-2H-pyran-3,5-diol], the results for the IC50 on human Gal-1 (hGal-1) and on human Gal-3 (hGal-3) (setting [1]) were 700 nM and 30 nM, respectively.

For the molecule `CN1CCC(O)([C@@H](S[C@@H]2O[C@H](CO)[C@H](O)[C@H](n3cc(-c4cc(F)c(F)c(F)c4)nn3)[C@H]2O)c2ccccc2C(F)(F)F)CC1` [Example 2.40.112S., (2S,3R,4S,5R,6R)-2-(((S)-(4-Hydroxy-1-methylpiperidin-4-yl)(2-(trifluoromethyl)phenyl)methyl)thio)-6-(hydroxymethyl)-4-(4-(3,4,5-trifluorophenyl)-1H-1,2,3-triazol-1-yl)tetrahydro-2H-pyran-3,5-diol], the results for the IC50 at human Gal-1 (hGal-1) and on human Gal-3 (hGal-3) (setting [3]) were 21700 nM and 3950 nM, respectively.

In the case of `Cc1ccccc1C(S[C@@H]1O[C@H](CO)[C@H](O)[C@H](n2cc(-c3cc(F)c(F)c(F)c3)nn2)[C@H]1O)C(C)(C)O` (stereo partly drawn) [Example 2.31.102., (2S,3R,4S,5R,6R)-2-((2-Hydroxy-2-methyl-1-(o-tolyl)propyl)thio)-6-(hydroxymethyl)-4-(4-(3,4,5-trifluorophenyl)-1H-1,2,3-triazol-1-yl)tetrahydro-2H-pyran-3,5-diol], the IC50 turned out to be 2140 nM on human Gal-1 (hGal-1) and 170 nM at human Gal-3 (hGal-3) (setting [1]).

For the molecule `Cc1noc(C2CC2)c1[C@@H](S[C@@H]1O[C@H](CO)[C@H](O)[C@H](n2cc(-c3cc(F)c(F)c(F)c3)nn2)[C@H]1O)C1(O)CCCCC1` [Example 2.39.128R., (2S,3R,4S,5R,6R)-2-(((R)-(5-Cyclopropyl-3-methylisoxazol-4-yl)(1-hydroxycyclohexyl)methyl)thio)-6-(hydroxymethyl)-4-(4-(3,4,5-trifluorophenyl)-1H-1,2,3-triazol-1-yl)tetrahydro-2H-pyran-3,5-diol], the half-maximal inhibitory concentration (IC50) at human Gal-1 (hGal-1) was 1030 nM; at human Gal-3 (hGal-3) (setting [3]), 190 nM.

In the case of `CO[C@@H]1[C@@H](n2cc(-c3cc(F)c(F)c(F)c3)nn2)[C@@H](O)[C@@H](CO)O[C@H]1SC(c1ccccc1C(F)(F)F)C1(O)CCN(C(C)=O)CC1` (stereo partly drawn) [Example 2.48.112.I., 1-(4-Hydroxy-4-((((2S,3R,4S,5R,6R)-5-hydroxy-6-(hydroxymethyl)-3-methoxy-4-(4-(3,4,5-trifluorophenyl)-1H-1,2,3-triazol-1-yl)tetrahydro-2H-pyran-2-yl)thio)(2-(trifluoromethyl)phenyl)methyl)piperidin-1-yl)ethan-1-one], the IC50 was 400 nM at human Gal-1 (hGal-1) and 190 nM at human Gal-3 (hGal-3) (setting [1]).

`OC[C@H]1O[C@@H](SC(c2ncccc2C(F)(F)F)C2(O)CCCC2)[C@H](O)[C@@H](n2cc(-c3cc(F)c(F)c(F)c3)nn2)[C@H]1O` (some centres unmarked) [Example 2.38.125.]: the values for the IC50 at human Gal-1 (hGal-1) and on human Gal-3 (hGal-3) (setting [1]) were 760 nM and 130 nM, respectively.

As to `Cc1ccccc1[C@@H](S[C@@H]1O[C@H](CO)[C@H](O)[C@H](n2cc(-c3cc(F)c(F)c(F)c3)nn2)[C@H]1O)C1(O)CCOCC1` [Example 2.41.102R.], the IC50 at human Gal-1 (hGal-1) came to 210 nM; at human Gal-3 (hGal-3) (setting [3]), 40 nM.

Turning to `CO[C@@H]1[C@@H](n2cc(-c3ccc(Br)c(F)c3)nn2)[C@@H](O)[C@@H](CO)O[C@H]1SC(c1ncccc1C)C1(O)CCC(F)(F)CC1` (stereo partly drawn) [Example 12.44.126.I., (2R,3R,4S,5R,6S)-4-(4-(4-Bromo-3-fluorophenyl)-1H-1,2,3-triazol-1-yl)-6-(((4,4-difluoro-1-hydroxycyclohexyl)(3-methylpyridin-2-yl)methyl)thio)-2-(hydroxymethyl)-5-methoxytetrahydro-2H-pyran-3-ol], the IC50 was 3240 nM at human Gal-1 (hGal-1) and 190 nM at human Gal-3 (hGal-3) (Table 14, read-out: IC50 (Gal-3 inhibition)).

With `CO[C@@H]1[C@@H](n2cc(-c3cc(F)c(F)c(F)c3)nn2)[C@@H](O)[C@@H](CO)O[C@H]1S[C@H](c1noc(C2CC2)c1CC(C)C)C1(O)CCC(F)(F)CC1` [Example 2.44.131R.I., (2R,3R,4S,5R,6S)-6-(((R)-(5-Cyclopropyl-4-isobutylisoxazol-3-yl)(4,4-difluoro-1-hydroxycyclohexyl)methyl)thio)-2-(hydroxymethyl)-5-methoxy-4-(4-(3,4,5-trifluorophenyl)-1H-1,2,3-triazol-1-yl)tetrahydro-2H-pyran-3-ol], the IC50 on human Gal-1 (hGal-1) worked out at 100 nM; at human Gal-3 (hGal-3) (Table 10, 2-OMe-Gal inhibitors, read-out: IC50 (Gal-3 inhibition)), 130 nM.

For `CC(C)(O)[C@H](S[C@@H]1O[C@H](CO)[C@H](O)[C@H](n2cc(-c3cc(F)c(F)c(F)c3)nn2)[C@H]1O)c1ccccc1Cl` [Example 2.31.111R., (2S,3R,4S,5R,6R)-2-(((R)-1-(2-Chlorophenyl)-2-hydroxy-2-methylpropyl)thio)-6-(hydroxymethyl)-4-(4-(3,4,5-trifluorophenyl)-1H-1,2,3-triazol-1-yl)tetrahydro-2H-pyran-3,5-diol], the IC50 at human Gal-1 (hGal-1) worked out at 3190 nM; on human Gal-3 (hGal-3) (setting [1]), 380 nM.

Regarding `CO[C@@H]1[C@@H](n2cc(-c3cc(F)c(F)c(F)c3)nn2)[C@@H](O)[C@@H](CO)O[C@H]1S[C@@H](c1nccc(C(F)(F)F)c1C)C1(O)CCC(F)(F)CC1` [Example 2.44.147S.I., (2R,3R,4S,5R,6S)-6-(((S)-(4,4-Difluoro-1-hydroxycyclohexyl)(3-methyl-4-(trifluoromethyl)pyridin-2-yl)methyl)thio)-2-(hydroxymethyl)-5-methoxy-4-(4-(3,4,5-trifluorophenyl)-1H-1,2,3-triazol-1-yl)tetrahydro-2H-pyran-3-ol], the IC50 on human Gal-1 (hGal-1) was 31800 nM; at human Gal-3 (hGal-3) (setting [2]), 5300 nM.

For “(2S,3R,4S,5R,6R)-2-(((R)-(2-Cyclopropylphenyl)(4,4-difluoro-1-hydroxycyclohexyl)methyl)thio)-6-(hydroxymethyl)-4-(4-(3,4,5-trifluorophenyl)-1H-1,2,3-triazol-1-yl)tetrahydro-2H-pyran-3,5-diol [Example 2.44.106R.]”, the IC50 at human Gal-1 (hGal-1) worked out at 20 nM; on human Gal-3 (hGal-3) (setting [3]), 60 nM.

For the molecule `CN1CCC(O)([C@@H](S[C@@H]2O[C@H](CO)[C@H](O)[C@H](n3cc(-c4cc(F)c(F)c(F)c4)nn3)[C@H]2O)c2ncccc2C(F)(F)F)CC1` [Example 2.40.125S., (2S,3R,4S,5R,6R)-2-(((S)-(4-Hydroxy-1-methylpiperidin-4-yl)(3-(trifluoromethyl)pyridin-2-yl)methyl)thio)-6-(hydroxymethyl)-4-(4-(3,4,5-trifluorophenyl)-1H-1,2,3-triazol-1-yl)tetrahydro-2H-pyran-3,5-diol], the values for the half-maximal inhibitory concentration (IC50) at human Gal-1 (hGal-1) and at human Gal-3 (hGal-3) (setting [3]) were 11200 nM and 3650 nM, respectively.

Consider `Cc1ccccc1C(S[C@@H]1O[C@H](CO)[C@H](O)[C@H](n2cc(-c3cc(F)c(F)c(F)c3)nn2)[C@H]1O)C1(O)CC(C)C1C` (stereo partly drawn) [Example 2.37.102., (2S,3R,4S,5R,6R)-2-(((1-Hydroxy-2,3-dimethylcyclobutyl)(o-tolyl)methyl)thio)-6-(hydroxymethyl)-4-(4-(3,4,5-trifluorophenyl)-1H-1,2,3-triazol-1-yl)tetrahydro-2H-pyran-3,5-diol], for which the figures for the IC50 on human Gal-1 (hGal-1) and on human Gal-3 (hGal-3) (setting [3]) were 5360 nM and 560 nM, respectively.

In general, IC50 refers to the concentration at which inhibition is half-maximal.

(Values after US12404295B2, “(Hetero)aryl-methyl-thio-beta-D-galactopyranoside derivatives” (Idorsia Pharmaceuticals Ltd, priority 2019, dated 2025).)
